Measurements reported in PubChem BioAssay AID248 (DTP/NCI, 2004).
Several values for one entry are separate records, joined by “and”; a condition that tells them apart may be missing. Equal values may be shown once. Toxic doses and inconclusive results are not listed.

Tested on: L1210 leukemia ip in BDF1 mice, survival T/C
Test: NCI In Vivo Anticancer Drug Screen. Data for tumor model L1210 Leukemia (intraperitoneal) in B6D2F1 (BDF1) mice
Settings: endpoint: mean survival time, higher = longer survival
Outline: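 Read-out is survival time, reported as the treated-group measurement over the vehicle-control measurement.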

[1] = dose: 100.0 mg/kg/injection, schedule: Q01DX009 (ip), vehicle: Klucel (hydroxypropylcellulose) (HPC)
[2] = dose: 100.0 mg/kg/injection, schedule: Q01DX009 (ip), vehicle: saline with Tween-80
[3] = dose: 200.0 mg/kg/injection, schedule: Q01DX009 (ip), vehicle: saline with Tween-80
[4] = dose: 50.0 mg/kg/injection, schedule: Q01DX009 (ip), vehicle: saline with Tween-80
[5] = dose: 100.0 mg/kg/injection, schedule: Q01DX001 (ip), vehicle: saline
[6] = dose: 200.0 mg/kg/injection, schedule: Q01DX001 (ip), vehicle: saline

## CN=C(NC)c1ccc(NC(=O)Nc2ccc(NC(=O)Nc3ccc(C(=NC)NC)cc3)cc2)cc1
dose: 3.94 mg/kg/injection, schedule: Q01DX Z (ip), vehicle: saline
  T/C: 108 % of control
dose: 4.0 mg/kg/injection, schedule: Q01DX Z (ip), vehicle: carboxymethylcellulose (CMC)
  T/C: 107 % of control
dose: 5.9 mg/kg/injection, schedule: Q01DX Z (ip), vehicle: saline
  T/C: 114 % of control
dose: 8.0 mg/kg/injection, schedule: Q01DX Z (ip), vehicle: carboxymethylcellulose (CMC)
  T/C: 121 % of control
dose: 8.86 mg/kg/injection, schedule: Q01DX Z (ip), vehicle: saline
  T/C: 120 % of control
dose: 30.0 mg/kg/injection, schedule: Q01DX Z (ip), vehicle: carboxymethylcellulose (CMC)
  T/C: 101 % of control
dose: 45.0 mg/kg/injection, schedule: Q01DX Z (ip), vehicle: saline
  T/C: 115 % of control

## c1cc2ccc1CCc1ccc(cc1)CC2
dose: 100.0 mg/kg/injection, schedule: Q01DX001 (ip), vehicle: saline with Tween-80
  T/C: 100 % of control
dose: 100.0 mg/kg/injection, schedule: Q01DX009 (ip), vehicle: saline sonified
  T/C: 94 % of control
dose: 200.0 mg/kg/injection, schedule: Q01DX001 (ip), vehicle: saline with Tween-80
  T/C: 102 % of control
dose: 200.0 mg/kg/injection, schedule: Q01DX009 (ip), vehicle: saline sonified
  T/C: 99 % of control
dose: 400.0 mg/kg/injection, schedule: Q01DX001 (ip), vehicle: saline with Tween-80
  T/C: 98 % of control
dose: 400.0 mg/kg/injection, schedule: Q01DX009 (ip), vehicle: saline sonified
  T/C: 93 % of control

## CN(C)CCC(O)(Cc1ccccc1)c1ccccc1 (configuration not stated)
dose: 50.0 mg/kg/injection, schedule: Q01DX009 (ip), vehicle: Klucel (hydroxypropylcellulose) (HPC)
  T/C: 95 % of control
[1]
  T/C: 101 % of control
dose: 100.0 mg/kg/injection, schedule: Q04DX003 (ip), vehicle: Klucel (hydroxypropylcellulose) (HPC)
  T/C: 95 % of control
dose: 200.0 mg/kg/injection, schedule: Q04DX003 (ip), vehicle: Klucel (hydroxypropylcellulose) (HPC)
  T/C: 101 % of control

## OCc1ccc(Cl)cc1
[2]
  T/C: 102 % of control
[3]
  T/C: 98 % of control
dose: 400.0 mg/kg/injection, schedule: Q01DX009 (ip), vehicle: saline with Tween-80
  T/C: 96 % of control

## Nc1ccc(-c2ccc(N)c(Cl)c2)cc1Cl
dose: 100.0 mg/kg/injection, schedule: Q04DX003 (ip), vehicle: saline
  T/C: 100 % of control
dose: 200.0 mg/kg/injection, schedule: Q04DX003 (ip), vehicle: saline
  T/C: 103 % of control
dose: 400.0 mg/kg/injection, schedule: Q04DX003 (ip), vehicle: saline
  T/C: 91 % of control

## Nc1c(O)c(Cl)cc(Cl)c1Cl
dose: 100.0 mg/kg/injection, schedule: Q04DX002 (ip), vehicle: other
  T/C: 110 % of control
dose: 200.0 mg/kg/injection, schedule: Q04DX002 (ip), vehicle: other
  T/C: 107 % of control

## Cc1ccc(-n2ccnc2)c(N=Cc2ccc(N(CCCl)CCCl)cc2F)c1
dose: 100.0 mg/kg/injection, schedule: Q04DX002 (ip), vehicle: Klucel (hydroxypropylcellulose) (HPC)
  T/C: 98 % of control
dose: 200.0 mg/kg/injection, schedule: Q04DX002 (ip), vehicle: Klucel (hydroxypropylcellulose) (HPC)
  T/C: 106 % of control
dose: 400.0 mg/kg/injection, schedule: Q04DX002 (ip), vehicle: Klucel (hydroxypropylcellulose) (HPC)
  T/C: 106 % of control

## CCN(CC)C(=O)/C=C\c1ccccc1
[4]
  T/C: 102 % of control
[2]
  T/C: 102 % of control
[3]
  T/C: 112 % of control

## O=Nc1c2cc3ccccc3[nH]c-2c2ccccc12
dose: 50.0 mg/kg/injection, schedule: Q01DX001 (ip), vehicle: Klucel (hydroxypropylcellulose) (HPC)
  T/C: 95 % of control
dose: 100.0 mg/kg/injection, schedule: Q01DX001 (ip), vehicle: Klucel (hydroxypropylcellulose) (HPC)
  T/C: 93 % of control
dose: 200.0 mg/kg/injection, schedule: Q01DX001 (ip), vehicle: Klucel (hydroxypropylcellulose) (HPC)
  T/C: 93 % of control

## O=C(Nc1cccc(C(F)(F)F)c1)N(C1CCCCC1)C1CCCCC1
[1]
  T/C: 92 % of control
dose: 200.0 mg/kg/injection, schedule: Q01DX009 (ip), vehicle: Klucel (hydroxypropylcellulose) (HPC)
  T/C: 87 % of control
dose: 400.0 mg/kg/injection, schedule: Q01DX009 (ip), vehicle: Klucel (hydroxypropylcellulose) (HPC)
  T/C: 87 % of control

## CC1(N=C(N)CSSCC(N)=NC2(C)CCC(C(C)(C)C)CC2)CCC(C(C)(C)C)CC1 (configuration not stated)
dose: 0.7 mg/kg/injection, schedule: Q01DX009 (ip), vehicle: other
  T/C: 93 % of control and 96 % of control
dose: 1.0 mg/kg/injection, schedule: Q01DX001 (ip), vehicle: other
  T/C: 107 % of control
dose: 1.0 mg/kg/injection, schedule: Q01DX009 (ip), vehicle: other
  T/C: 101 % of control and 103 % of control
dose: 1.56 mg/kg/injection, schedule: Q01DX009 (ip), vehicle: other
  T/C: 97 % of control and 101 % of control
dose: 2.0 mg/kg/injection, schedule: Q01DX001 (ip), vehicle: other
  T/C: 105 % of control
dose: 2.35 mg/kg/injection, schedule: Q01DX009 (ip), vehicle: other
  T/C: 105 % of control and 90 % of control
dose: 3.12 mg/kg/injection, schedule: Q01DX009 (ip), vehicle: carboxymethylcellulose (CMC)
  T/C: 112 % of control
dose: 4.0 mg/kg/injection, schedule: Q01DX001 (ip), vehicle: other
  T/C: 111 % of control
dose: 5.0 mg/kg/injection, schedule: Q04DX003 (ip), vehicle: other
  T/C: 95 % of control
dose: 6.25 mg/kg/injection, schedule: Q01DX009 (ip), vehicle: carboxymethylcellulose (CMC)
  T/C: 102 % of control
dose: 6.25 mg/kg/injection, schedule: Q01DX009 (ip), vehicle: other
  T/C: 98 % of control
dose: 10.0 mg/kg/injection, schedule: Q04DX003 (ip), vehicle: other
  T/C: 105 % of control
dose: 12.5 mg/kg/injection, schedule: Q01DX009 (ip), vehicle: other
  T/C: 102 % of control
dose: 12.5 mg/kg/injection, schedule: Q04DX002 (ip), vehicle: other
  T/C: 104 % of control and 90 % of control
dose: 25.0 mg/kg/injection, schedule: Q04DX002 (ip), vehicle: carboxymethylcellulose (CMC)
  T/C: 102 % of control and 112 % of control

## COc1cc2cc(C)[nH]c2cc1OC
dose: 50.0 mg/kg/injection, schedule: Q01DX001 (ip), vehicle: saline
  T/C: 101 % of control
[5]
  T/C: 95 % of control
[6]
  T/C: 98 % of control

## Nc1ccc(/C=C\C(=O)NCc2cccnc2)cc1
dose: 25.0 mg/kg/injection, schedule: Q01DX009 (ip), vehicle: saline with Tween-80
  T/C: 109 % of control
[4]
  T/C: 102 % of control
[2]
  T/C: 93 % of control and 90 % of control

## COC(=O)c1[nH]cnc1/N=N/N(C)C
dose: 6.75 mg/kg/injection, schedule: Q01DX009 (ip), vehicle: saline
  T/C: 119 % of control
dose: 9.3 mg/kg/injection, schedule: Q01DX015 (ip), vehicle: saline
  T/C: 113 % of control
dose: 11.25 mg/kg/injection, schedule: Q01DX Z (ip), vehicle: saline
  T/C: 124 % of control
dose: 22.25 mg/kg/injection, schedule: Q04DX003 (ip), vehicle: saline
  T/C: 115 % of control
dose: 27.0 mg/kg/injection, schedule: Q01DX009 (ip), vehicle: saline
  T/C: 150 % of control
dose: 31.0 mg/kg/injection, schedule: Q01DX Z (ip), vehicle: saline
  T/C: 171 % of control
dose: 44.5 mg/kg/injection, schedule: Q04DX003 (ip), vehicle: saline
  T/C: 120 % of control
dose: 46.0 mg/kg/injection, schedule: Q01DX Z (ip), vehicle: saline
  T/C: 160 % of control
dose: 54.0 mg/kg/injection, schedule: Q01DX015 (ip), vehicle: saline
  T/C: 164 % of control
dose: 57.5 mg/kg/injection, schedule: Q01DX001 (ip), vehicle: saline
  T/C: 114 % of control
dose: 62.0 mg/kg/injection, schedule: Q01DX Z (ip), vehicle: saline
  T/C: 121 % of control
dose: 88.0 mg/kg/injection, schedule: Q01DX001 (ip), vehicle: saline
  T/C: 112 % of control
dose: 88.8 mg/kg/injection, schedule: Q01DX001 (ip), vehicle: saline
  T/C: 124 % of control
dose: 90.0 mg/kg/injection, schedule: Q01DX015 (ip), vehicle: saline
  T/C: 114 % of control
[5]
  T/C: 124 % of control
dose: 115.0 mg/kg/injection, schedule: Q01DX001 (ip), vehicle: saline
  T/C: 114 % of control
dose: 133.0 mg/kg/injection, schedule: Q01DX001 (ip), vehicle: saline
  T/C: 115 % of control
[6]
  T/C: 121 % of control
dose: 231.0 mg/kg/injection, schedule: Q01DX001 (ip), vehicle: saline
  T/C: 123 % of control
